Measurements published in patent US20260092039A1, “DUAL INHIBITORS FOR THE TREATMENT OF ALZHEIMER'S DISEASE” (UNIVERSITAT DE BARCELONA, priority 2023, published 2026).

Columns and labels:
[1] = target: T1, recombinant human sEH (hsEH) (Homo sapiens, UniProt P34913); assay: In vitro determination of sEH inhibitory activity (fluorescent PHOME assay)
T1 sequence (P34913 1-555): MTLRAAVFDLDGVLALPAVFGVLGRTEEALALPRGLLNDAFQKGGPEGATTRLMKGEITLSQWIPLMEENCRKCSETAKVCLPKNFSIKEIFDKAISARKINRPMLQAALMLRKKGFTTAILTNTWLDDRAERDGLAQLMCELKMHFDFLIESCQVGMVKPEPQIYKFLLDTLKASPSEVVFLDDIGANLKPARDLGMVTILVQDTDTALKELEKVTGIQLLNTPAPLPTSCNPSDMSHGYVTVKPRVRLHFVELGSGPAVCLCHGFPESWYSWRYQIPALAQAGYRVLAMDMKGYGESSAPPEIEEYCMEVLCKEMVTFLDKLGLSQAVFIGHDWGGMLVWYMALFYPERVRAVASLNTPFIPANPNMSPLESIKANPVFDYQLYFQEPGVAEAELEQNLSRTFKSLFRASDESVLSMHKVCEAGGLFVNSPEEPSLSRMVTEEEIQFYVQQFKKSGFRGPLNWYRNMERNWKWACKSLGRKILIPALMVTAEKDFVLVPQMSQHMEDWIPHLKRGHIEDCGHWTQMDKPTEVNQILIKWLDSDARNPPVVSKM
Experimental: Control compound (TPPU): N-[1-(1-Oxopropyl)-4-piperidinyl]-N′-[4-(trifluoromethoxy)phenyl]urea.
Five μL of DMSO were added to background and positive control wells, and then 5 μL of inhibitor solution were added in the inhibitor wells. Five μL of the solution of hsEH were added to the positive control and inhibitor wells and the mixture was stirred. A 1/21 dilution of the solution of PHOME with assay buffer was prepared according to the final volume required, and then 105 μL of each well were added. The plate was carefully shaken for 10 seconds and was incubated for 5 minutes at room temperature. […] The intensity of fluorescence was used to analyze and calculate the IC50 values. Results were obtained by regression analysis from at least three data points in a linear region of the curve. IC50 values are average of minimum three independent replicates.

[2] = test system: LPS stimulated BV2 cells; assay: Cytokine release in LPS stimulated BV2 cells; assay type: cell-based, murine; conditions: 24 h
Experimental: Compounds of formula I were diluted from 250 mM DMSO stock solutions to a 10 mM stock in DMSO. Thereafter, the compounds were diluted to 10 μM and 1 μM in medium, so that the final DMSO concentration in the well was 0.1% for all conditions. The stock solutions were stored at −20° C. until further use.
Culture and treatment of BV-2 cells: The murine microglial cell line BV-2 was cultivated in Dulbecco's modified eagle medium (DMEM) supplemented with 10% fetal calf serum (FCS), 1% penicillin/streptomycin and 2 mM L-glutamine (culture medium). For the lipopolysaccharide (LPS) stimulation assay, 20,000 BV-2 cells per well (uncoated 96 well plates) were plated out. After 48 h, the medium was changed to treatment medium (DMEM, 5% FCS, 2 mM L-glutamine) and cells were maintained in treatment medium for the remaining culture period. After changing cells to treatment medium, the compounds were administered 1 h before LPS stimulation (Sigma-Aldrich; L6529; 1 mg/mL stock in ddH2O, final concentration in well: 100 ng/mL (dilutions in medium)). Cells treated with vehicle and LPS alone served as controls. All wells were handled the same way. After 24 h of stimulation, cell supernatants were collected for the cytokine measurement. The experiment was performed in n=6 technical replicates for all groups.
Cytokine measurement: The samples were diluted 1:2 and analysed for 4 cytokines (IL-1β, IL-2, IL-6, TNF-α) with a commercially available immunosorbent assay kit (U-plex, K15069L, Mesoscale Discovery) according to the instructions of the manufacturer. In brief, 25 μL of diluent 41 and 25 μL sample or respective standard were placed into wells of the pre-coated U-plex plate and incubated on an orbital shaker at room temperature for 1 h. Plates were washed 3 times with phosphate buffered saline with 0.05% Tween 20 (PBST) and thereafter 50 μL of detection antibody were added. Plates were again incubated on an orbital shaker at room temperature for 1 h. After another 3 washing steps with PBST, 150 μL of Mesoscale Discovery (MSD) GOLD Read Buffer were added and plates were read on Sector imager. Data were evaluated in comparison to calibration curves provided in the kit.
Statistics: Basic statistical analysis was performed. Group differences were evaluated by e.g. one-way ANOVA followed by a posthoc test, if appropriate.

[3] = test system: primary mouse cortical neurons; assay: MTT viability assay in mouse primary cortical neurons; assay type: cell-based
Experimental: The compounds were diluted from 250 mM DMSO stocks to a 100 mM stock in DMSO. Thereafter, compounds were diluted to 100 μM, 20 μM, 5 μM, 1 μM, 0.2 μM, 0.05 μM, 0.01 μM and 0.001 μM dilution in medium, so that the final DMSO concentration in the well was 0.1% for all conditions. Stock solutions were stored at −20° C. until further use.
Isolation and treatment of primary mouse cortical neurons: Primary cortical neurons were prepared from timed pregnant wild-type C57BL/6JRccHsd mice at E16.5-E18. Animals were sacrificed by carbon dioxide and embryos were dissected in Calcium and Magnesium free Hanks Balanced Salt Solution (CMF-HBSS) containing 15 mM HEPES and 10 mM NaHCO3, pH 7.2. Embryos were decapitated, skin and skull gently removed and cortical hemispheres were separated. After removing meninges and brain stem, the cortex was isolated, chopped with a sterile razor blade in Chop solution (Hibernate-E without Calcium containing 2% B-27) and digested in 2 mg/mL papain (Worthington) dissolved in Hibernate-E without Calcium for 30 min at 30° C. Cortices were triturated for 10-15 times with a fire-polished silanized Pasteur pipette in Hibernate-E without Calcium containing 2% B-27, 0.01% DNaseI, 1 mg/mL BSA, and 1 mg/mL Ovomucoid Inhibitor. Undispersed pieces were allowed to settle by gravity for 1 min and the supernatant was centrifuged for 3 min at 228 g. The pellet was resuspended in Hibernate-E containing 2% B-27, 0.01% DNaseI, 1 mg/mL BSA, 1 mg/mL Ovomucoid Inhibitor and diluted with Hibernate-E containing 2% B-27. After the second centrifugation step (3 min at 228 g), the pellet was resuspended in nutrition medium without glutamate (Neurobasal, 2% B-27, 0.5 mM glutamine, 1% Penicillin-Streptomycin). Cells were counted in a hemacytometer and seeded in nutrition medium on poly-D-lysine pre-coated plates. Cells were cultured at 37° C.; 95% humidity and 5% CO2. All wells were handled the same way. On DIV8, cells were treated with the compounds for the evaluation of the neurotoxic effect. On DIV9, the MTT and LDH assays were performed as described below. The experiments were performed in six technical replicates for all groups per experiment.
MTT viability assay: Viability of cultures was determined on DIV9 by the MTT assay using a plate-reader (570 nm). MTT solution was added to each well in a final concentration of 0.5 mg/mL. After 2 h the MTT containing medium was aspirated. Cells were lysed in 3% SDS and the formazan crystals were dissolved in isopropanol/HCl. Optical density was measured with a plate-reader at wavelength 570 nm. Cell survival rate was expressed as optical density (OD). Values were calculated as percent of control values (vehicle control).

Row | Structure (SMILES) | IC50 [1] [nM] | IL-1β level ([2]; compound 1 μM) | IL-2 level ([2]; compound 1 μM) | IL-6 level ([2]; compound 1 μM) | TNF-α level ([2]; compound 1 μM) | IL-1β level ([2]; compound 10 μM) | IL-2 level ([2]; compound 10 μM) | IL-6 level ([2]; compound 10 μM) | TNF-α level ([2]; compound 10 μM) | primary cortical neuronal cell viability, MTT ([3]; compound 0.001 μM) | primary cortical neuronal cell viability, MTT ([3]; compound 0.01 μM) | primary cortical neuronal cell viability, MTT ([3]; compound 0.05 μM) | primary cortical neuronal cell viability, MTT ([3]; compound 0.2 μM) | primary cortical neuronal cell viability, MTT ([3]; compound 1 μM) | primary cortical neuronal cell viability, MTT ([3]; compound 5 μM) | primary cortical neuronal cell viability, MTT ([3]; compound 20 μM) | primary cortical neuronal cell viability, MTT ([3]; compound 100 μM)
1 | CCC12CC3CC(C1)CC(NC(=O)NCCCn1cncc1C)(C3)C2 [Id, 1-(3-ethyladamantan-1-yl)-3-[3-(5-methyl-1H-imidazol-1-yl)propyl]urea] | 3.3 | 46 % of vehicle control | 38 % of vehicle control | 34 % of vehicle control | 98 % of vehicle control | 73 % of vehicle control | 26 % of vehicle control | 24 % of vehicle control | 84 % of vehicle control | 110 % of vehicle control | 107 % of vehicle control | 100 % of vehicle control | 99 % of vehicle control | 99 % of vehicle control | 93 % of vehicle control | 89 % of vehicle control | 53 % of vehicle control
2 | Cc1cncn1CCCNC(=O)NC1C2CC3CC(C2)CC1C3 (centres unmarked) [Ii, 1-(adamantan-2-yl)-3-[3-(5-methyl-1H-imidazol-1-yl)propyl]urea] | 4.3 | 86 % of vehicle control | 66 % of vehicle control | 63 % of vehicle control | 104 % of vehicle control | 125 % of vehicle control | 48 % of vehicle control | 62 % of vehicle control | 103 % of vehicle control | 101 % of vehicle control | 95 % of vehicle control | 99 % of vehicle control | 96 % of vehicle control | 101 % of vehicle control | 101 % of vehicle control | 101 % of vehicle control | 55 % of vehicle control
3 | Cc1cncn1CCCNC(=O)NC12CC3CC(CC(C)(C3)O1)C2 [Ir, 1-[3-(5-methyl-1H-imidazol-1-yl)propyl]-3-(3-methyl-2-oxaadamantan-1-yl)urea] | 860 | 77 % of vehicle control | 52 % of vehicle control | 37 % of vehicle control | 107 % of vehicle control | 94 % of vehicle control | 37 % of vehicle control | 38 % of vehicle control | 102 % of vehicle control | 97 % of vehicle control | 97 % of vehicle control | 93 % of vehicle control | 99 % of vehicle control | 101 % of vehicle control | 99 % of vehicle control | 99 % of vehicle control | 87 % of vehicle control
4 | CCC12CC3CC(C1)CC(NC(=O)NCCCn1cncc1C)(C3)O2 [Is, 1-(3-ethyl-2-oxaadamantan-1-yl)-3-[3-(5-methyl-1H-imidazol-1-yl)propyl]urea] | 2800 | 95 % of vehicle control | 66 % of vehicle control | 65 % of vehicle control | 104 % of vehicle control | 124 % of vehicle control | 48 % of vehicle control | 64 % of vehicle control | 104 % of vehicle control | 104 % of vehicle control | 102 % of vehicle control | 103 % of vehicle control | 96 % of vehicle control | 101 % of vehicle control | 103 % of vehicle control | 101 % of vehicle control | 86 % of vehicle control
